Results as given in PMC9458978, “Design, synthesis and biological evaluation of novel biphenylsulfonamide derivatives as selective AT2 receptor antagonists” (Frontiers in Chemistry, 2022).
Entries after “also recorded” stand apart in the source; their conditions may differ.

Columns and labels:
AT1 receptor = target: T1, AT1 receptor (Rattus norvegicus, UniProt P25095); assay: Rat liver membrane AT1 receptor binding assay ([125I]-Ang II displacement); conditions: displacement of [125I]-Ang II, rat liver membranes; means ± SE, triplicate; read-out: Ki (nM) AT1R
T1 construct: Rat liver membranes were prepared according to the method of Dudley et al; from tissue; host or cells: rat liver membranes
Protocol: The target compounds were evaluated for AT1 receptor binding affinity by displacement of [^125I]-Ang II from the AT1 receptor in rat liver membranes. The radio-iodinated AT2 receptor selective ligand [^125I]-CGP42112 was used to study AT2 receptor binding affinity in HEK-293 cells (HEK293-hAT2R) ([Dudley et al., 1990]; [Whitebread et al., 1991]). All of above methods were widely accepted and used to evaluate the binding activity of AT1 and AT2 receptors.
Rat liver membranes were prepared according to the method of Dudley et al ([Dudley et al., 1990]). After HEK-293 cells were transfected with the AT2 receptor, a lysis buffer was used to separate the cell membrane of HEK-293 cells ([Grieger et al., 2016]), using 27-G Resuspend. The lysis solution was mixed and centrifuged at 12,000 g for 10 min at 4°C. Details are shown in the Supplementary Material.
3. Radioligand binding assay steps
3.1 Rat Liver Membrane AT1 Receptor Binding Assay.
Rat liver membranes were prepared according to the method of Dudley et al[1].
Binding of [125I]-Ang II to membranes was conducted in a final volume of 0.5 mL containing 50 mM Tris-HCl (pH 7.4), 100 mM NaCl, 10 mM MgCl2, 1 mM EDTA, 0.025% bacitracin, 0.2% BSA (bovine serum albumin), liver homogenate corresponding to 5 mg of the original tissue weight, [125I]-Ang II (80000-85 000 cpm, 0.03 nM), and variable concentrations of test substance. Samples were incubated at 25 ℃ for 2 h, and binding was terminated by filtration through Whatman GF/B glass-fiber filter sheets, which had been presoaked overnight with 0.3 % polyethylamine, using a Brandel cell harvester. The filterswere washed with 3×3 mL of Tris-HCl (pH 7.4) and transferred to tubes. The radioactivity was measured in a γ-counter. The characteristics of the Ang II binding AT1receptor was determined by using six different concentrations (0.03-5 nmol/L) of the labeled [125I]-Ang II.
Nonspecific binding was determined in the presence of 1 µM Ang II.The specific binding was determined by subtracting the nonspecific binding from the total bound [125I]-Ang II.The apparent dissociation constant Ki values were calculated from IC50 values using the Cheng-Prusoff equation. […]
(§1) one-site fit.All determinations were performed in triplicate. […]

AT2 receptor [1] = target: T2, AT2 receptor (Homo sapiens, UniProt P50052); assay: HEK-293 cell AT2 receptor binding assay ([125I]-CGP42112 displacement, HEK293-hAT2R)
T2 construct: expressed in transfected cells; host or cells: HEK-293
T2 sequence (P50052 1-363): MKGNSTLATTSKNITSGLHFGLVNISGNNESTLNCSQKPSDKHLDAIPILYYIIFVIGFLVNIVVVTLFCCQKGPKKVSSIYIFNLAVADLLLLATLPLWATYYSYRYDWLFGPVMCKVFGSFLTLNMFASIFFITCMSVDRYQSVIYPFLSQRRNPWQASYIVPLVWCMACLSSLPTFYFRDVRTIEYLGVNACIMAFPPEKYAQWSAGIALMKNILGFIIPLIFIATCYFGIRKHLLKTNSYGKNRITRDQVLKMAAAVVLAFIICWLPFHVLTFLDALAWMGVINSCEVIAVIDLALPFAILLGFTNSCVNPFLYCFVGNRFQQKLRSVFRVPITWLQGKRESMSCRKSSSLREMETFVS
Protocol: All of above methods were widely accepted and used to evaluate the binding activity of AT1 and AT2 receptors.
The lysis solution was mixed and centrifuged at 12,000 g for 10 min at 4°C. Details are shown in the Supplementary Material.
After HEK-293 cells were transfected with AT2 receptor, lysis buffer (150 mM NaCl, 0.1% Triton X-100, 50 mM Tris-HCl, 1 mM EDTA, protease inhibitor) was used to separate the cell membrane of HEK-293 cells[2],using 27-G Resuspend and mix the lysis solution, and centrifuge at 12,000 g for 10 minutes at 4 °C. The supernatant was collected and centrifuged for a further 60 minutes. The precipitated membrane extracts were buffered (150 mM NaCl, 10 mM MgCl2, 0.5 % SDS, 1 % Triton X-100, 50 mM Tris-Cl, 1 mM EDTA, protease inhibitor ) for resuspension. […]
mL containing 50 mM Tris-HCl (pH 7.4), 100 mM NaCl, 10 mM MgCl2, 1 mM […]
cpm, 0.03 nM), and variable concentrations of test substance. Samples were incubated at 25 ℃ for 2 h, and binding was terminated by filtration through Whatman GF/B glass-fiber filter sheets, which had been presoaked overnight with 0.3 % polyethylamine, using a Brandel cell harvester. The filterswere washed with 3×3 mL of Tris-HCl (pH 7.4) and transferred to tubes. The radioactivity was measured in a γ-counter. The characteristics of the Ang II binding AT1 receptor was determined by […]
Nonspecific binding was determined in the presence of 1 µM Ang II.The specific binding was determined by subtracting the nonspecific binding from the total bound The apparent dissociation constant Ki values were calculated from IC50 values using the Cheng-Prusoff equation. […]
as §1

AT2 receptor [2] = assay: Neurite outgrowth assay with NG108-15 cells (AT2 receptor function assay); conditions: for Function (AT2 receptor agonist / antagonist): 3-day treatment, 10 or 100 nM, with or without PD-123,319 (10 uM) or Ang II
Protocol: The ratio of cell neurite outgrowth was used to evaluate, and the details are shown in the Supplementary Material.
NG108-15 cells (China Center for Type Culture Collection CCTCC) were used to study the in vitro morphological effects. In their undifferentiated state, neuroblastoma × glioma hybrid NG108-15 cells havea rounded shape and divide actively. The cells were cultured from passage 18–25 in Dulbecco’s modified Eagle’s medium (DMEM, Gibco BRL, Thermo Fisher Technology (China) Co., Ltd, China) with 10% fetal bovine serum (FBS, Gibco), HAT supplement and 50 mg L^−1 gentamycin at 37°C in 75 cm^2 Nunclon Delta flasks in a humidified atmosphere of 95% air and 5% CO2, as previously described ([Buisson et al., 1992]). Subcultures were performed at subconfluency. Under these conditions, cells express mainly the AT2 receptor subtype ([Whitebread et al., 1991]). Cells were treated during 3 days, once a day (first treatment 24 h after plating), and micrographs were taken on the fourth day. The details of experimental grouping and administration method are shown in the Supplementary Material. […]
4. NG108-15 cell experiment steps […]
peptidic AT2 receptor agonist CGP-42112A induces neurite outgrowth. The […]
plated as described in the Experimental Section, and adequate test concentrations for […]
each compound were determined by testing a dilution series of each compound […]
ranging from 1 pM to 1 uM.
The chemicals used in the present study were obtained from the following sources: Dulbecco’s modified Eagle’s medium (DMEM), heat-inactivated fetal bovine serum (FBS), HAT supplement (hypoxanthine, aminopterin, thymidine), gentamycin from Gibco BRL (Burlington, Ontario, Canada), and Ang II from MedChemExpress

AT2R = conditions: Figure 5, tetrahydroisoquinoline antagonists, ref Smith et al., 2013, Rice et al., 2014, Smith and Muralidharan, 2015, 2016; cited from earlier work

T1 sequence (P25095 whole entry): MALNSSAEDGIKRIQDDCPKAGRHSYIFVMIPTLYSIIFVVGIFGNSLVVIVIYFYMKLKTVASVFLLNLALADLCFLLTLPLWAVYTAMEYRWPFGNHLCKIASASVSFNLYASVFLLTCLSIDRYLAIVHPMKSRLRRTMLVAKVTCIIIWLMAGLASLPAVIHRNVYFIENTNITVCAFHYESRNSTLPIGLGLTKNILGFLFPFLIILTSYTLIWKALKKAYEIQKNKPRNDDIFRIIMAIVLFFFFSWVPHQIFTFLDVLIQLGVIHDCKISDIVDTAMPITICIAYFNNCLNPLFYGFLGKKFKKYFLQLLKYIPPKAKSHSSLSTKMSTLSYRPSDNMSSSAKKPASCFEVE

SMILES | Ki (AT1 receptor) [nM] | Ki (AT2 receptor [1]) [nM] | Function (AT2 receptor agonist / antagonist) (AT2 receptor [2]) | evidence of cell death (AT2 receptor [2]; dilution series 1 pM to 1 uM, seen only at the highest concentration) | Ki (AT2R) [nM]
CCCCc1ccc(S(=O)(=O)NC(=O)OC(C)C)c(-c2cccc(Cn3cncn3)c2)c1 [8h, Isopropyl((3'-((1H-1,2,4-triazol-1-yl)methyl)-5-butyl-[1,1′-biphenyl]-2-yl)sulfonyl)carbamate] | 1505 ± 1.11 | 82.9 ± 1.19 | antagonistic activity; also recorded: antagonist activity | evidence of cell death | 
CCCCOc1ccc(S(=O)(=O)NC(=O)CCCC)c(-c2cccc(Cn3cncn3)c2)c1 [8i, N-((3'-((1H-1,2,4-triazol-1-yl)methyl)-5-butoxy-[1,1′-biphenyl]-2-yl)sulfonyl)pentanamide] | 1250 ± 1.12 | 199.6 ± 1.17 | antagonistic activity; also recorded: AT2R antagonist; also recorded: antagonist activity |  | 
CCCCOC(=O)NS(=O)(=O)c1ccc(OCCCC)cc1-c1cccc(Cn2cncn2)c1 [8j, Butyl((3'-((1H-1,2,4-triazol-1-yl)methyl)-5-butoxy-[1,1′-biphenyl]-2-yl)sulfonyl)carbamate] | 889.3 ± 1.24 | 620.1 ± 1.27 | agonistic activity; also recorded: agonist activity; also recorded: AT2R agonist |  | 
CCCCOc1ccc(S(=O)(=O)NC(=O)OCC(C)C)c(-c2cccc(Cn3cncn3)c2)c1 [8k, Isobutyl((3'-((1H-1,2,4-triazol-1-yl)methyl)-5-butoxy-[1,1′-biphenyl]-2-yl)sulfonyl)carbamate] | 775 ± 1.08 | 712.5 ± 1.17 | antagonistic activity; also recorded: AT2R antagonist; also recorded: antagonist activity |  | 
CCCCOc1ccc(S(=O)(=O)NC(=O)OC(C)C)c(-c2cccc(Cn3cncn3)c2)c1 [8l, Isopropyl((3'-((1H-1,2,4-triazol-1-yl)methyl)-5-butoxy-[1,1′-biphenyl]-2-yl)sulfonyl)carbamate] | 2005 ± 1.16 | 56.6 ± 1.16 | antagonistic activity; also recorded: AT2R antagonist; also recorded: antagonist activity |  | 
CCCCc1ccc(S(=O)(=O)NC(=O)OC(C)C)c(-c2cccc(Cn3cccn3)c2)c1 [9h, Isopropyl((3'-((1H-pyrazol-1-yl)methyl)-5-butyl-[1,1′-biphenyl]-2-yl)sulfonyl)carbamate] | 1723 ± 1.07 | 138 ± 1.34 | antagonistic activity; also recorded: Antagonist |  | 
COc1ccc(Cn2cnc3c2C[C@@H](C(=O)O)N(C(=O)C(c2ccccc2)c2ccccc2)C3)cc1C [EMA300] |  |  |  |  | 28
